# Laboratory results taken from patent US8859620B2, “Phthalanilate compounds and methods of use” (University of Notre Dame du Lac, priority 2009, dated 2014).
# Where two headings read alike, the source gives them in different places.
# Key:
# [1] = molecular target: TEM-1 (class A β-lactamase) (Escherichia coli, UniProt P62593); assay: β-Lactamase assay (nitrocefin colour change), TEM-1; format: biochemical; conditions: for TEM-1: Table 10, class symbols x/xx/xxx, key not given
# Protocol: (§1) β-Lactamase Assays (TEM-1, P99, and OXA-10): The activity of the compounds of the invention (inhibitors) toward β-lactamases was evaluated using 96 well plates. The reaction mixture included 10 mM sodium phosphate, pH 7.0, 150 mM sodium chloride, 0.01% Triton X-100, 100 μM nitrocefin, 10 nM of β-lactamases (class A: TEM-1; class C: P99, or class D: OXA-10), and variable concentrations of the inhibitors in a total volume of 100 μL. β-Lactamases were pre-incubated with the compounds at room temperature for 5 minutes, and the assay was initiated by the addition of nitrocefin. The inhibition of the enzyme activity by the compounds was determined by monitoring color change (from yellow to red) of nitrocefin after 20 minutes. Stock solutions of the compounds were prepared in dimethyl sulfoxide (DMSO). No more than 5% DMSO was present in assays, unless noted otherwise. B1aR Assay: The surface domain of B1aR (1 μM) was added to each inhibitor (at various concentrations) in 100 mM sodium phosphate, 50 mM sodium bicarbonate, at pH 7.0. The reaction mixtures were incubated at room temperature for 20 minutes. BOCILLIN FL, a fluorogenic ligand, was added to a concentration of 20 μM in a final volume of 20 μL. The mixtures were incubated at 37° C. for 5 minutes, at which point the reactions were quenched by the addition of 15 μL of the SDS sample buffer (125 mM Tris, 4% SDS, 20% glycerol, 2% 2-mercaptoethanol, pH 6.8), and were boiled for 4 minutes. The samples were loaded onto 15% SDS-PAGE, the gel was developed and scanned using a Storm 840® Fluorimager. The fluorescent bands of BOCILLIN FL-labeled B1aR^S were analyzed by Image Quant 5.2 software. PBP2 Assay: The PBP2 assay was performed according to the methods of Villegas-Esterada et al. (J. Am. Chem. Soc. 2008, 130, 9212-9213).
# [2] = molecular target: OXA-10 (class D β-lactamase) (Pseudomonas aeruginosa, UniProt P14489); assay: β-Lactamase assay (nitrocefin colour change), OXA-10; format: biochemical; conditions: for OXA-10: Table 10, class symbols x/xx/xxx, key not given
# Sequence of OXA-10 (class D β-lactamase) (P14489 20-266, species assumed): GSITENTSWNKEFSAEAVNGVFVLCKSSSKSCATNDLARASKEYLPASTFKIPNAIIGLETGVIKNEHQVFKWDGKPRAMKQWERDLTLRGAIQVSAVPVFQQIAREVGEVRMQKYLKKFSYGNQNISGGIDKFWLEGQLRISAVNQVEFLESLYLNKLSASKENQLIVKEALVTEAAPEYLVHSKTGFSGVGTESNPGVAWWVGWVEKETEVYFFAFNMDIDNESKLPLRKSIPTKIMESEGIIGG
# Protocol: as §1
# [3] = molecular target: P99 (class C β-lactamase) (Enterobacter cloacae, UniProt P05364); assay: β-Lactamase assay (nitrocefin colour change), P99; format: biochemical; conditions: for P99: Table 10, class symbols x/xx/xxx, key not given
# Sequence of P99 (class C β-lactamase) (P05364 21-381): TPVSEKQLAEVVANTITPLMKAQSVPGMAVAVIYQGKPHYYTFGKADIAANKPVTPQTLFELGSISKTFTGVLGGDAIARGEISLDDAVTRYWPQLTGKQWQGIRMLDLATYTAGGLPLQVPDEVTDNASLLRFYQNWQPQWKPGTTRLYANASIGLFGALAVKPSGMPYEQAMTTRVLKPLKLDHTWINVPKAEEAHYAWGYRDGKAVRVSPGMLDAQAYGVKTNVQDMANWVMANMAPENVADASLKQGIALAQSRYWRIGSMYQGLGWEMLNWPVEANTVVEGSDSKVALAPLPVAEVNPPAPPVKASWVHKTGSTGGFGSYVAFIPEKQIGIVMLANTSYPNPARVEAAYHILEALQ
# Protocol: as §1
# [4] = system: S. aureus NRS100 (Mec^R); assay: MIC against S. aureus NRS100 (Table 14); format: cell-based, Staphylococcus aureus; conditions: for MIC: compounds dissolved in DMSO or 1% sodium carbonate; for inhibitory activity (in words): Table 14
# Protocol: The recited compounds were dissolved in DMSO or in 1% sodium carbonate and transferred into micro titer plate to final concentration of 1000 μg/mL.
# [5] = system: S. aureus NRS11 (Mec^S); assay: MIC against S. aureus NRS11 (Table 13); format: cell-based, Staphylococcus aureus; conditions: for MIC: compounds dissolved in DMSO or 1% sodium carbonate; for inhibitory properties (in words): Table 13
# Protocol: All recited compounds were dissolved in DMSO or in 1% sodium carbonate and transferred to micro titer plates to final concentrations of 1000 μg/mL.
# [6] = Staphylococcus aureus, read-out: MIC
# Sequence of TEM-1 (class A β-lactamase) (P62593 24-286 limits assumed): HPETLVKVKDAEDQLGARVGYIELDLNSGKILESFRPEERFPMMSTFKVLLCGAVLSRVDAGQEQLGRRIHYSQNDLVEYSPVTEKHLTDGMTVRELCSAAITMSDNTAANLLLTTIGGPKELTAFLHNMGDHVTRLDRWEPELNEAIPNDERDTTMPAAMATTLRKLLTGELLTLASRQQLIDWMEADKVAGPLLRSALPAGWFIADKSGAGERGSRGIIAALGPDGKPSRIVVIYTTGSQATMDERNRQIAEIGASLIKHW
smiles,measurement,setting,value
O=C(O)c1c(Cl)c(Cl)c(Cl)c(Cl)c1C(=O)Nc1ccc(Cl)c(C(F)(F)F)c1 [Compound 258],TEM-1,[1],xxx
same,OXA-10,[2],xx
same,P99,[3],xx
CCCCCCCCOc1ccc(NC(=O)c2c(Br)c(Br)c(Br)c(Br)c2C(=O)O)c[n+]1[O-] [Compound 360],TEM-1,[1],xx
same,OXA-10,[2],xxx
O=C1C2=C(SCCS2)C(=O)N1[C@@H](CO)[C@@H](O)c1ccc([N+](=O)[O-])cc1 [Compound 140],TEM-1,[1],xx
same,OXA-10,[2],xx
same,P99,[3],xx
COCCOCCOc1ccc(NC(=O)c2c(Br)c(Br)c(Br)c(Br)c2C(=O)O)cn1 [Compound 403],MIC,[4],">2,000 μg/mL"
same,MIC,[5],">2,000 μg/mL"
CCCCCCCCOc1ccc(NC(=O)c2c(F)c(F)c(F)c(F)c2C(=O)O)c[n+]1[O-] [Compound 359],MIC,[4]; [6],1000 µg/mL
same,MIC,[5]; [6],1000 µg/mL
O=C(O)c1c(Br)c(Br)c(Br)c(Br)c1C(=O)Nc1cccc(C(F)(F)F)c1 [Compound 196],TEM-1,[1],xx
same,P99,[3],xx
CCCCCCCCOc1ccc(N(C)C(=O)c2c(Br)c(Br)c(Br)c(Br)c2C(=O)O)cc1 [Compound 307],OXA-10,[2],xxx
COCCOCCOc1ccc(NC(=O)c2c(Br)c(Br)c(Br)c(Br)c2C(=O)O)c[n+]1[O-] [Compound 410],MIC,[4]; [6],500 µg/mL
same,MIC,[5]; [6],500 µg/mL
O=C(O)c1c(Br)c(Br)c(Br)c(Br)c1C(=O)Nc1ccc(OCc2ccccc2)nc1 [Compound 365],MIC,[4]; [6],16 µg/mL
same,inhibitory activity (in words),[4],significant inhibitory activity
same,OXA-10,[2],xx
same,MIC,[5]; [6],8 µg/mL
same,inhibitory properties (in words),[5],significant inhibitory properties
CCCCOC(=O)c1ccc(NC(=O)c2c(Br)c(Br)c(Br)c(Br)c2C(=O)O)cc1 [Compound 334],MIC,[4]; [6],128 µg/mL
same,MIC,[5]; [6],128 µg/mL
CCCCOC(=O)c1ccc(NC(=O)c2c(F)c(F)c(F)c(F)c2C(=O)O)cc1 [Compound 332],MIC,[4]; [6],2000 µg/mL
same,MIC,[5]; [6],2000 µg/mL
O=C(O)CC1(CC(=O)Nc2ccc(Cl)c(C(F)(F)F)c2)CCCC1 [Compound 246],OXA-10,[2],xx
CCCCCCCCOc1ccc(N2C(=O)c3c(Br)c(Br)c(Br)c(Br)c3C2=O)cc1 [Compound 230],MIC,[4]; [6],> 16 µg/mL
CCCCCCCCOc1ccc(N(C)C(=O)c2c(F)c(F)c(F)c(F)c2C(=O)O)cc1 [Compound 305],MIC,[4]; [6],16 µg/mL
same,OXA-10,[2],xx
same,P99,[3],xx
COCCOCCOc1ccc(NC(=O)c2c(F)c(F)c(F)c(F)c2C(=O)O)cn1 [Compound 401],MIC,[4],">2,000 μg/mL"
same,MIC,[5],">2,000 μg/mL"
CCCCOC(=O)c1ccc(NC(=O)N(C)c2ccccc2C(=O)O)cc1 [Compound 326],MIC,[4],"2,000 μg/mL"
same,MIC,[5],"2,000 μg/mL"
O=C(O)c1c(Cl)c(Cl)c(Cl)c(Cl)c1C(=O)Nc1cccc(Oc2ccccc2)c1 [Compound 268],TEM-1,[1],xxx
same,P99,[3],xx
O=C(O)c1c(Br)c(Br)c(Br)c(Br)c1C(=O)Nc1ccc(CO)cc1 [Compound 223],TEM-1,[1],xxx
same,OXA-10,[2],xxx
same,P99,[3],xxx
CCCCCCCCOc1ccc(NC(=O)c2ccccc2C(=O)O)c[n+]1[O-] [Compound 357],MIC,[4]; [6],> 2000 µg/mL
same,MIC,[5]; [6],> 2000 µg/mL
O=C(O)c1c(F)c(F)c(F)c(F)c1C(=O)Nc1ccc(OCC(O)COCC2CC2)c(Cl)c1 (stereo not drawn) [Compound 354],MIC,[4],500 µg/mL
same,MIC,[5],500 µg/mL
CC(Oc1ccc(NC(=O)c2ccccc2C(=O)O)cc1Cl)c1ccccc1 (stereo not drawn) [Compound 379],MIC,[4],">2,000 μg/mL"
same,MIC,[5],">2,000 μg/mL"
CC(Oc1ccc(NC(=O)c2c(Cl)c(Cl)c(Cl)c(Cl)c2C(=O)O)cc1Cl)c1ccccc1 (stereo not drawn) [Compound 381],MIC,[4]; [6],32 µg/mL
same,inhibitory activity (in words),[4],significant inhibitory activity
same,OXA-10,[2],xxx
same,MIC,[5]; [6],16 µg/mL
same,inhibitory properties (in words),[5],significant inhibitory properties
O=C(O)c1c(F)c(F)c(F)c(F)c1C(=O)Nc1ccc(OCc2ccccc2)nc1 [Compound 363],MIC,[4],">2,000 μg/mL"
same,MIC,[5],">2,000 μg/mL"
O=C(O)c1c(Cl)c(Cl)c(Cl)c(Cl)c1C(=O)Nc1ccc(OCc2cccc(C(F)(F)F)c2)c(Cl)c1 [Compound 389],IC50,[1],4.5 ± 0.4 µM
same,TEM-1,[1],xxx
same,MIC,[4]; [6],< 8 µg/mL
same,inhibitory activity (in words),[4],significant inhibitory activity
same,OXA-10,[2],xxx
same,IC50,"[2]; nitrocefin 100 μM, 10 nM enzyme, 5 min pre-incubation, read-out: IC50s OXA-10",44.2 ± 3.4 µM
same,MIC,[5]; [6],< 8 µg/mL
same,inhibitory properties (in words),[5],significant inhibitory properties
same,P99,[3],xxx
same,IC50,"[3]; nitrocefin 100 μM, 10 nM enzyme, 5 min pre-incubation, read-out: IC50s P99",20.2 ± 3 µM
